Like-named read-outs stand apart in the source and are kept apart here.
Columns and labels:
[1] = target: human liver microsomal cytochrome P450 2E1 (CYP2E1) (Homo sapiens, UniProt P05181); assay: Chlorzoxazone hydroxylation inhibition (6-OH-CZX by LC/MS/MS)
[2] = target: cDNA expressed human cytochrome P450 2E1 (CYP2E1) (Homo sapiens, UniProt P05181)
CYP2E1 [3] = target: T1, CYP2E1 (Homo sapiens, UniProt P05181); assay: in vitro; conditions: for inhibition at 40 min, 16.5 µM / inhibition at 40 min, 66 µM: pH 7.4, Inhibition of CYP 2E1 (%); for inhibition at 40 min, 16.5 µM: tested concentration 16.5 μM; for inhibition at 40 min, 66 µM: tested concentration 66 μM; for inhibition at 40 min, 33 µM: pH 7.4
CYP2E1 [4] = target: T1, CYP2E1; assay: Chlorzoxazone hydroxylation inhibition (6-OH-CZX by LC/MS/MS); conditions: human, microsomes, pH 7.4

Chain of human liver microsomal cytochrome P450 2E1 (CYP2E1) (P05181 whole entry): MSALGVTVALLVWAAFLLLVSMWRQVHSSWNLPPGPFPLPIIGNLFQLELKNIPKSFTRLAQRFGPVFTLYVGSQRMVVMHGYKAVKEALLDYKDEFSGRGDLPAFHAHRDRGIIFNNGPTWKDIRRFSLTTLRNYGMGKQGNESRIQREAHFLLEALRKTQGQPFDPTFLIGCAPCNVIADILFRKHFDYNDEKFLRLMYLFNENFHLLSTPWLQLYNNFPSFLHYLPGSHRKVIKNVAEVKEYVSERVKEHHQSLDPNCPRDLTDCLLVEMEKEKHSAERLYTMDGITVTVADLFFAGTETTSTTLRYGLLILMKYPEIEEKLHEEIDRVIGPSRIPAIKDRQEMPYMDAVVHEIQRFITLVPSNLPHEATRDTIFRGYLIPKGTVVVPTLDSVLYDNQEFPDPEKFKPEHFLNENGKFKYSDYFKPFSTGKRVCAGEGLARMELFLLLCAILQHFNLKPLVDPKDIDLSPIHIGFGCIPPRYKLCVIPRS
T1 sequence (P05181 whole entry): as above
Chain of cDNA expressed human cytochrome P450 2E1 (CYP2E1) (P05181 whole entry): as above

Compound	inhibition at 30 min, 16.5 µM (CYP2E1 [4])	inhibition at 30 min, 33 µM (CYP2E1 [4])	inhibition at 30 min, 66 µM (CYP2E1 [4])	also measured
C=C(C)C1CC=C(C)CC1 (single isomer, unassigned; (+)) [(+)-Limonene]				Inhibition of CYP 2E1 (%) ([1]; tested concentration 16.5 μM): 13.77 ± 1.96%; Inhibition of CYP 2E1 (%) ([1]; tested concentration 33 μM): 38.05 ± 1.95%; Inhibition of CYP 2E1 (%) ([1]; tested concentration 66 μM): 63.64 ± 2.74%
CCCCC[C@H](O)CC(=O)CCc1ccc(O)c(OC)c1 [6-Gingerol]				Inhibition of CYP 2E1 (%) ([2]; tested concentration 33 μM): 39.83 ± 2.32%
Oc1cc(O)c2c(c1)O[C@H](c1ccc(O)c(O)c1)[C@@H](O)C2 [(+)-Catechin]				Inhibition of CYP 2E1 (%) ([2]; tested concentration 16.5 μM): 41.53 ± 7.62%; Inhibition of CYP 2E1 (%) ([2]; tested concentration 33 μM): 33.83 ± 8.76%; Inhibition of CYP 2E1 (%) ([2]; tested concentration 66 μM): 16.45 ± 9.67%
Oc1cc(O)c2c(c1)O[C@@H](c1ccc(O)c(O)c1)[C@@H](O)C2 [(+)-Epicatechin]				Inhibition of CYP 2E1 (%) ([1]; tested concentration 16.5 μM): 66.71 ± 1.79%; Inhibition of CYP 2E1 (%) ([1]; tested concentration 33 μM): 52.32 ± 1.59%
O=C1c2c(O)cc(O)cc2O[C@H](c2ccc(O)c(O)c2)[C@H]1O [(+)-Taxifolin]				inhibition at 40 min, 16.5 µM (CYP2E1 [3]): 22.6 ± 11.7%; inhibition at 40 min, 66 µM (CYP2E1 [3]): 34.5 ± 3.47%
Oc1cc(O)c2c(c1)O[C@H](c1ccc(O)c(O)c1)[C@H](O)C2 [(−)-Epicatechin]				Inhibition of CYP 2E1 (%) ([2]; tested concentration 16.5 μM): 18.27 ± 9.34%; Inhibition of CYP 2E1 (%) ([2]; tested concentration 33 μM): 15.02 ± 5.50%; Inhibition of CYP 2E1 (%) ([2]; tested concentration 66 μM): 2.57 ± 11.60%
Oc1cc(O)c2c(c1)O[C@H](c1cc(O)c(O)c(O)c1)[C@H](O)C2 [(−)-Epigallocatechin]				Inhibition of CYP 2E1 (%) ([1]; tested concentration 16.5 μM): 38.95 ± 1.92%; Inhibition of CYP 2E1 (%) ([1]; tested concentration 33 μM): 36.40 ± 2.18%; Inhibition of CYP 2E1 (%) ([1]; tested concentration 66 μM): 57.08 ± 1.85%
O=C(O[C@@H]1Cc2c(O)cc(O)cc2O[C@@H]1c1cc(O)c(O)c(O)c1)c1cc(O)c(O)c(O)c1 [(−)-Epigallocetechin-3-gallate]				Inhibition of CYP 2E1 (%) ([1]; tested concentration 16.5 μM): 50.19 ± 1.89%; Inhibition of CYP 2E1 (%) ([1]; tested concentration 33 μM): 60.53 ± 2.06%; Inhibition of CYP 2E1 (%) ([1]; tested concentration 66 μM): 72.16 ± 1.02%
O=c1cc(-c2ccc(O)cc2)oc2cc(O)cc(O)c12 [Apigenin]	28.9 ± 1.54%	36.8 ± 1.98%	47.5 ± 3.66%	
O=c1cc(-c2ccccc2)oc2cc(O)c(O)c(O)c12 [Baicalein]	35.3 ± 1.51%	47.8 ± 3.4%	50.1 ± 5.11%	
O=C(O)[C@H]1O[C@@H](Oc2cc3oc(-c4ccccc4)cc(=O)c3c(O)c2O)[C@H](O)[C@@H](O)[C@@H]1O [Baicalin]	22.5 ± 2.24%	35.6 ± 3.09%	49.3 ± 2.26%	
O=c1c(-c2ccc(O)cc2)coc2cc(O)ccc12 [Daidzein]	73.5 ± 1.74%	76.3 ± 2.28%	86.8 ± 1.04%	
COc1ccc(-c2cc(=O)c3c(O)cc(O[C@@H]4O[C@H](CO[C@@H]5O[C@@H](C)[C@H](O)[C@@H](O)[C@H]5O)[C@@H](O)[C@H](O)[C@H]4O)cc3o2)cc1O [Diosmin]	60 ± 1.96%	43.1 ± 3.57%	21.6 ± 1.19%	
CCCCCCCCCCCC1=C(O)C(=O)C=C(O)C1=O [Embelin]				inhibition at 40 min, 33 µM (CYP2E1 [3]): 12.3 ± 10.2%; inhibition at 40 min, 16.5 µM (CYP2E1 [3]): 5.95 ± 7.48%; inhibition at 40 min, 66 µM (CYP2E1 [3]): 13.5 ± 11.6%
CCCCCCCCCCCCCC(=O)OCC [Ethyl Myristate]	22.1 ± 0.78%	41 ± 4.76%	52 ± 2.38%	
O=c1c(-c2ccc(O)cc2)coc2cc(O)cc(O)c12 [Genistein]	43.9 ± 2.06%	30.9 ± 1.62%	36.9 ± 1.56%	
COc1ccc([C@@H]2CC(=O)c3c(O)cc(O)cc3O2)cc1O [Hesperetin]	25.7 ± 2.45%	34.3 ± 2.03%	44.6 ± 2.35%	inhibition at 40 min, 33 µM (CYP2E1 [3]): 43.3 ± 0.82%; inhibition at 40 min, 16.5 µM (CYP2E1 [3]): 32.1 ± 5.8%; inhibition at 40 min, 66 µM (CYP2E1 [3]): 54.8 ± 1.37%
COc1ccc([C@@H]2CC(=O)c3c(O)cc(O[C@@H]4O[C@H](CO[C@@H]5O[C@@H](C)[C@H](O)[C@@H](O)[C@H]5O)[C@@H](O)[C@H](O)[C@H]4O)cc3O2)cc1O [Hesperidin]				Inhibition of CYP 2E1 (%) ([1]; tested concentration 16.5 μM): 45.32 ± 1.57%; Inhibition of CYP 2E1 (%) ([1]; tested concentration 33 μM): 50.91 ± 2.81%; Inhibition of CYP 2E1 (%) ([1]; tested concentration 66 μM): 58.57 ± 3.78%
O=c1c(O[C@@H]2O[C@H](CO)[C@H](O)[C@H](O)[C@H]2O)c(-c2ccc(O)c(O)c2)oc2cc(O)cc(O)c12 [Hyperoside]	-24.2 ± 1.19%	35.6 ± 3.68%	53.5 ± 1.2%	
COc1cc(-c2oc3cc(O)cc(O)c3c(=O)c2O)ccc1O [Isorhamnetin]	12.1 ± 1.06%	18.7 ± 1.22%	36.3 ± 1.59%	
O=c1cc(-c2ccc(O)cc2)oc2cc(O)c([C@@H]3O[C@H](CO)[C@@H](O)[C@H](O)[C@H]3O)c(O)c12 [Isovitexin]	59.8 ± 1.41%	67.6 ± 3.24%	81.8 ± 1.34%	
O=c1c(O)c(-c2ccc(O)cc2)oc2cc(O)cc(O)c12 [Kaempferol]	66.5 ± 1.71%	74.74 ± 0.6%	79.25 ± 0.27%	inhibition at 40 min, 33 µM (CYP2E1 [3]): 70 ± 3.75%; inhibition at 40 min, 16.5 µM (CYP2E1 [3]): 71.9 ± 1.14%; inhibition at 40 min, 66 µM (CYP2E1 [3]): 70.6 ± 2.53%

Compound	inhibition at 30 min, 16.5 µM (CYP2E1 [4])	inhibition at 30 min, 33 µM (CYP2E1 [4])	inhibition at 30 min, 66 µM (CYP2E1 [4])	also measured
O=c1cc(-c2ccc(O)c(O)c2)oc2cc(O[C@@H]3O[C@H](CO)[C@@H](O)[C@H](O)[C@H]3O)cc(O)c12 [Luteolin-7-Glucoside]				Inhibition of CYP 2E1 (%) ([1]; tested concentration 16.5 μM): 42.96 ± 5.10%; Inhibition of CYP 2E1 (%) ([1]; tested concentration 33 μM): 55.87 ± 0.67%; Inhibition of CYP 2E1 (%) ([1]; tested concentration 66 μM): 60.26 ± 1.11%
O=c1cc(-c2ccc(O)c(O)c2)oc2cc(O)cc(O)c12 [Luteolin]	39.1 ± 3.42%	43.4 ± 4.74%	53.2 ± 1.78%	
O=c1c(O)c(-c2ccc(O)cc2O)oc2cc(O)cc(O)c12 [Morin]	36.9 ± 1.56%	52.1 ± 1.7%	60.3 ± 1.56%	
O=c1c(O)c(-c2cc(O)c(O)c(O)c2)oc2cc(O)cc(O)c12 [Myricetin]	42.2 ± 2.55%	59.2 ± 1.27%	61.6 ± 0.88%	
O=C1C[C@@H](c2ccc(O)cc2)Oc2cc(O)cc(O)c21 [Naringenin]	19.5 ± 2.02%	28.4 ± 2.21%	45.2 ± 4.43%	inhibition at 40 min, 33 µM (CYP2E1 [3]): 36.8 ± 3.97%; inhibition at 40 min, 16.5 µM (CYP2E1 [3]): 25.1 ± 7.6%; inhibition at 40 min, 66 µM (CYP2E1 [3]): 41.8 ± 3.51%
COc1ccc([C@@H]2CC(=O)c3c(O)cc(O[C@@H]4O[C@H](CO)[C@@H](O)[C@H](O)[C@H]4O[C@@H]4O[C@@H](C)[C@H](O)[C@@H](O)[C@H]4O)cc3O2)cc1O [Neohesperidin]				Inhibition of CYP 2E1 (%) ([1]; tested concentration 16.5 μM): 42.81 ± 1.75%; Inhibition of CYP 2E1 (%) ([1]; tested concentration 33 μM): 48.96 ± 2.37%; Inhibition of CYP 2E1 (%) ([1]; tested concentration 66 μM): 58.70 ± 1.06%
O=C(CCc1ccc(O)cc1)c1c(O)cc(O)cc1O [Phloretin]	29.6 ± 3.21%	39.8 ± 3.28%	50.9 ± 2.09%	inhibition at 40 min, 33 µM (CYP2E1 [3]): 54.7 ± 2.84%; inhibition at 40 min, 16.5 µM (CYP2E1 [3]): 42 ± 3.63%; inhibition at 40 min, 66 µM (CYP2E1 [3]): 66.8 ± 4.79%
O=C(CCc1ccc(O)cc1)c1c(O)cc(O)cc1O[C@@H]1O[C@H](CO)[C@@H](O)[C@H](O)[C@H]1O [Phloridzin]				inhibition at 40 min, 33 µM (CYP2E1 [3]): 3.76 ± 3.58%; inhibition at 40 min, 16.5 µM (CYP2E1 [3]): 1.25 ± 7.9%; inhibition at 40 min, 66 µM (CYP2E1 [3]): 1.42 ± 9.28%
O=C(O)c1ccc(O)c(O)c1 [Protocatechuic acid]				inhibition at 40 min, 33 µM (CYP2E1 [3]): 19.9 ± 8.95%; inhibition at 40 min, 16.5 µM (CYP2E1 [3]): 25.7 ± 12.7%; inhibition at 40 min, 66 µM (CYP2E1 [3]): 22.8 ± 4.07%
O=c1c(-c2ccc(O)cc2)coc2c([C@@H]3O[C@H](CO)[C@@H](O)[C@H](O)[C@H]3O)c(O)ccc12 [Puerarin]				inhibition at 40 min, 33 µM (CYP2E1 [3]): -4.64 ± 3.47%; inhibition at 40 min, 16.5 µM (CYP2E1 [3]): 0.43 ± 2.31%; inhibition at 40 min, 66 µM (CYP2E1 [3]): -12.9 ± 2.75%
O=c1c(O)c(-c2ccc(O)c(O)c2)oc2cc(O)cc(O)c12 [Quercetin]	46.4 ± 4.68%	53 ± 2.17%	73.3 ± 1.57%	
C[C@@H]1O[C@@H](Oc2c(-c3ccc(O)c(O)c3)oc3cc(O)cc(O)c3c2=O)[C@H](O)[C@H](O)[C@H]1O [Quercitrin]	33.5 ± 4.29%	53.8 ± 3.51%	61 ± 5.88%	
C[C@@H]1O[C@@H](OC[C@H]2O[C@@H](Oc3c(-c4ccc(O)c(O)c4)oc4cc(O)cc(O)c4c3=O)[C@H](O)[C@@H](O)[C@@H]2O)[C@H](O)[C@H](O)[C@H]1O [Rutin]	30 ± 0.81%	30.1 ± 1.62%	43.5 ± 3.09%	
COc1cc(C2Oc3cc([C@H]4Oc5cc(O)cc(O)c5C(=O)[C@@H]4O)ccc3OC2CO)ccc1O (stereo partly drawn) [Silybin]	59.5 ± 2.34%	37.1 ± 1.15%	39 ± 1.19%	
COc1ccc(-c2oc3cc(O)cc(O)c3c(=O)c2O)cc1O [Tamarixetin]	37.4 ± 1.96%	47.8 ± 2.81%	50.9 ± 3.12%	
O=C/C=C/c1ccccc1 [Trans-Cinnamaldehyde]	60.8 ± 3%	89.6 ± 1.52%	92.81 ± 0.53%	
O=c1cc(-c2ccc(O)cc2)oc2c([C@@H]3O[C@H](CO)[C@@H](O)[C@H](O)[C@H]3O)c(O)cc(O)c12 [Vitexin]	23.1 ± 1.19%	30.6 ± 0.78%	38.7 ± 1.62%	
COc1c(O)cc(O)c2c(=O)cc(-c3ccccc3)oc12 [Wongonin]				Inhibition of CYP 2E1 (%) ([2]; tested concentration 33 μM): 21.87 ± 1.90%
O=C(O)c1cc(O)c(O)c(O)c1 [gallic acid]	10.5 ± 1.12%	18.8 ± 2.03%	28 ± 1.56%	inhibition at 40 min, 33 µM (CYP2E1 [3]): 42.7 ± 7.36%; inhibition at 40 min, 16.5 µM (CYP2E1 [3]): 35.6 ± 10%; inhibition at 40 min, 66 µM (CYP2E1 [3]): 48.2 ± 4.2%
O=C(O)/C=C/c1ccccc1 [trans-Cinnamic acid]				inhibition at 40 min, 33 µM (CYP2E1 [3]): 4.66 ± 6.5%; inhibition at 40 min, 16.5 µM (CYP2E1 [3]): 5.71 ± 10.5%; inhibition at 40 min, 66 µM (CYP2E1 [3]): 7.1 ± 6.95%
C=CC(=C)CCC=C(C)C [β-Myrcene]	53.4 ± 4.93%	75.5 ± 2.14%	76.5 ± 2.18%	
(−)-Epicatechin-3-gallate				Inhibition of CYP 2E1 (%) ([1]; tested concentration 16.5 μM): 30.31 ± 1.27%; Inhibition of CYP 2E1 (%) ([1]; tested concentration 33 μM): 34.84 ± 1.72%; Inhibition of CYP 2E1 (%) ([1]; tested concentration 66 μM): 42.92 ± 0.65%
